From patent publication US4713367A, “Retro-inverso analogs of the bradykinin potentiating peptide BPP5a” (Enichem S.p.A., priority 1986, dated 1987)
*1 amine or outer side, *2 acyl side, *3 side chain or, on linkers, in order; H or OH if unused. Where a SMILES comes first, the peptide text is derived from it. [ ]: non-standard residue; d: D form. X1 = O=C([C@@H]1C[C@H](Sc2ccccc2)CN1[*:1])[*:2]; pGlu = O=C1CC[C@@H](C(=O)O)N1

Legend:
[1] = test system: angiotensin converting enzyme; test: Degradation in vitro by the angiotensin converting enzyme; format: in vitro ADME; conditions: in the presence of the angiotensin converting enzyme
[2] = target: T1, angiotensin converting enzyme (Oryctolagus cuniculus, UniProt P12822); test: Inhibition of the angiotensin converting enzyme (IC50); format: biochemical, rabbit; conditions: for IC50: enzyme isolated from rabbit lungs (Cushman and Cheung)
T1 construct: The enzyme employed in this test has been isolated from rabbit lungs; from tissue; host or cells: rabbit lungs
T1 sequence (P12822 34-1310): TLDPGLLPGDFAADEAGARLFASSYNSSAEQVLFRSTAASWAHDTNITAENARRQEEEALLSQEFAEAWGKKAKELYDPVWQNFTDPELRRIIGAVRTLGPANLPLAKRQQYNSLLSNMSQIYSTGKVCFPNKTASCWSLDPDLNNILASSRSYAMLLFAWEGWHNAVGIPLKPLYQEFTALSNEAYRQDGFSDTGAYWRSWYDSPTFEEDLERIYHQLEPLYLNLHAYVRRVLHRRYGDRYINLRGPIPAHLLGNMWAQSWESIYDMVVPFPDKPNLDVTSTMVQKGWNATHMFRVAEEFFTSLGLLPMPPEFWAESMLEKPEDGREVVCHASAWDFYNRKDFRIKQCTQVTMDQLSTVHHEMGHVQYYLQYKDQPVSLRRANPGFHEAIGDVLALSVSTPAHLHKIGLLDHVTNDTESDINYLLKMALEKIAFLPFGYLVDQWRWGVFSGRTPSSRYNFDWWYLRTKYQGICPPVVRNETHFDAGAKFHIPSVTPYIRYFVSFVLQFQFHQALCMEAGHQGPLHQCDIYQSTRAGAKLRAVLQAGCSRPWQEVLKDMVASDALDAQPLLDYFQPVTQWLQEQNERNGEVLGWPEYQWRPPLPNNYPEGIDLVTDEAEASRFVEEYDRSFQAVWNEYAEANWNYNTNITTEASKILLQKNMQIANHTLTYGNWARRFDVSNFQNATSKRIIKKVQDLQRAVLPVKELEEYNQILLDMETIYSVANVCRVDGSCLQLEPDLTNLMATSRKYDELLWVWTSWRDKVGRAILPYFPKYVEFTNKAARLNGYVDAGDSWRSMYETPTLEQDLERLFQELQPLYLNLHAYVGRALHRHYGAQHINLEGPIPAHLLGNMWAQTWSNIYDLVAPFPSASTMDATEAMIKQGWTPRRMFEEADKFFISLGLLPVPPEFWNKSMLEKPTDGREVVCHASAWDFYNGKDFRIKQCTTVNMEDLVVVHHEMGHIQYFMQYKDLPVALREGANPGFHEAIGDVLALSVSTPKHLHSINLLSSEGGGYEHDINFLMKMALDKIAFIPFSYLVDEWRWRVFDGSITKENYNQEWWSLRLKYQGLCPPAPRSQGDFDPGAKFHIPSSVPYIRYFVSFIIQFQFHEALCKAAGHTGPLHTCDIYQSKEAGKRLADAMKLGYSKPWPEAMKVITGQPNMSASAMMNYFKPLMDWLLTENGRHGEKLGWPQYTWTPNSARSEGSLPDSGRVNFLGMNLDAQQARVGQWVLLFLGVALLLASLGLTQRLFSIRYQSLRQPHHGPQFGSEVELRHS
Text: In particular, comparative experiments carried out […] in order to evaluate the ACE inhibitory activity of the compounds of the present invention gave the results reported in following table I (IC50 represents the concentration of the test compound, in μM, which inhibits the angiotensin converting enzyme by 50%. The enzyme employed in this test has been isolated from rabbit lungs according to the method by Cushman and Cheung described in Biochem. Pharmacol. 20, 1637, (1971)).

[3] = test system: angiotensin converting enzyme; conditions: 15 minutes of preincubation; cited from earlier work
[4] = induced experimentally in rats; cited from earlier work
[5] = test system: bradykinin; conditions: bradykinin injected directly into the coronary arteries; cited from earlier work
[6] = test system: angiotensin I; conditions: infused directly into the brain; cited from earlier work
[7] = Hypotensive effect in anesthetized normotensive rats; format: in vivo, rat; conditions: injected intravenously at 0.18 mg/Kg
Experimental: In vivo experiments carried out in anesthetized normotensive rats confirmed a hypotensive effect of the compounds of the invention as compound (a), when injected intravenously at a dosage of 0.18 mg/Kg, produced a blood pressure decrease of about 20 mmHg.

Row | Compound | degradation by / resistance towards cleavage by ACE [1] | IC50 [2] | other results
1 | C[C@H](C(=O)N[C@H](Cc1ccccc1)NC(=O)[C@H](CCCCN)NC(=O)[C@@H]1CCC(=O)N1)C(=O)N1C[C@@H](Sc2ccccc2)C[C@H]1C(=O)O [(b), Glp--Lys--gPhe--(R)mAla--Pro(S--Ph)--OH] | complete resistance | – | –
2 | C[C@H](NC(=O)[C@H](Cc1ccccc1)NC(=O)[C@H](CCCCN)NC(=O)[C@@H]1CCC(=O)N1)C(=O)N1CCC[C@H]1C(=O)O [(c), Glp--Lys--Phe--Ala--Pro--OH] ([pGlu]KFAP-OH) | quickly degraded | 100 nM | –
3 | C[C@H](NC(=O)[C@H](Cc1c[nH]c2ccccc12)NC(=O)[C@H](CCCCN)NC(=O)[C@@H]1CCC(=O)N1)C(=O)N1CCC[C@H]1C(=O)O [(d), Glp--Lys--Trp--Ala--Pro--OH] ([pGlu]KWAP-OH) | quickly degraded | 100 nM | inhibitory activity after preincubation with the angiotensin converting enzyme [3]: complete loss of inhibitory activity; control of reno-vascular hypertension [4]: capable of controlling; in vivo activity of bradykinin [5]: potentiates; CNS-mediated hypertensive and tachycardic action of angiotensin I [6]: inhibits
4 | C[C@H](NC(=O)[C@H](Cc1ccccc1)NC(=O)[C@H](CCCCN)NC(=O)[C@@H]1CCC(=O)N1)C(=O)N1C[C@@H](Sc2ccccc2)C[C@H]1C(=O)O [(e), Glp--Lys--Phe--Ala--Pro(S--Ph)--OH] ([pGlu]KFA[X1]-OH) | quickly degraded | 60 nM | –
5 | C[C@@H](C(=O)N[C@H](Cc1ccccc1)NC(=O)[C@H](CCCCN)NC(=O)[C@@H]1CCC(=O)N1)C(=O)N1CCC[C@H]1C(=O)O [(f), Glp--Lys--gPhe--(S)mAla--Pro--OH] | complete resistance | – | –
6 | C[C@H](C(=O)N[C@H](Cc1ccccc1)NC(=O)[C@H](CCCCN)NC(=O)[C@@H]1CCC(=O)N1)C(=O)N1CCC[C@H]1C(=O)O [(g), Glp--Lys--gPhe--(R)mAla--Pro--OH] | complete resistance | – | –
7 | CC(C(=O)N[C@H](Cc1ccccc1)NC(=O)[C@H](CCCCN)NC(=O)[C@@H]1CCC(=O)N1)C(=O)N1CCC[C@H]1C(=O)O (stereo partly drawn) [Glp-Lys-gPhe-mAla-Pro-OH] | – | – | IC50 relative to that of the natural product (BPP5a) or the uninverted peptide Glp-Lys-Phe-Ala-Pro-OH ([2]; in vitro): more than 1000 times higher
8 | C[C@@H](C(=O)N[C@H](Cc1ccccc1)NC(=O)[C@H](CCCCN)NC(=O)[C@@H]1CCC(=O)N1)C(=O)N1C[C@@H](Sc2ccccc2)C[C@H]1C(=O)O [compound (a), Glp--Lys--gPhe--(S)mAla--Pro(S--Ph)--OH] | complete resistance | – | blood pressure decrease [7]: about 20 mmHg
